Assay results reported in PubChem BioAssay AID330 (DTP/NCI, 2004).
Where “and” joins values, the source holds several entries; their conditions need not be identical. Identical values can stand only once. Inconclusive results and toxic doses are left out.

Test system: P388 leukemia ip, CD2F1 mice, survival T/C
Test: NCI In Vivo Anticancer Drug Screen. Data for tumor model P388 Leukemia (intraperitoneal) in CD2F1 (CDF1) mice
Conditions: endpoint: median survival time, higher = longer survival
In short: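 Mice carrying the transplanted tumor received test compound or vehicle. Survival was recorded in each group, and the value is the treated-group measurement divided by that of the vehicle-treated control group.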

[1] = dose: 50.0 mg/kg/injection, schedule: Q01DX005 (ip), vehicle: Klucel (hydroxypropylcellulose) (HPC)
[2] = dose: 100.0 mg/kg/injection, schedule: Q01DX005 (ip), vehicle: Klucel (hydroxypropylcellulose) (HPC)
[3] = dose: 200.0 mg/kg/injection, schedule: Q01DX005 (ip), vehicle: Klucel (hydroxypropylcellulose) (HPC)
[4] = dose: 60.0 mg/kg/injection, schedule: Q01DX005 (ip), vehicle: saline
[5] = dose: 120.0 mg/kg/injection, schedule: Q01DX005 (ip), vehicle: saline
[6] = dose: 240.0 mg/kg/injection, schedule: Q01DX005 (ip), vehicle: saline
[7] = dose: 25.0 mg/kg/injection, schedule: Q01DX009 (ip), vehicle: saline with Tween-80
[8] = dose: 50.0 mg/kg/injection, schedule: Q01DX009 (ip), vehicle: saline with Tween-80
[9] = dose: 50.0 mg/kg/injection, schedule: Q01DX005 (ip), vehicle: saline with Tween-80
[10] = dose: 100.0 mg/kg/injection, schedule: Q01DX005 (ip), vehicle: saline with Tween-80
[11] = dose: 200.0 mg/kg/injection, schedule: Q01DX005 (ip), vehicle: saline with Tween-80
[12] = dose: 100.0 mg/kg/injection, schedule: Q01DX009 (ip), vehicle: saline with Tween-80
[13] = dose: 200.0 mg/kg/injection, schedule: Q01DX009 (ip), vehicle: saline with Tween-80
[14] = dose: 12.5 mg/kg/injection, schedule: Q01DX009 (ip), vehicle: other
[15] = dose: 25.0 mg/kg/injection, schedule: Q01DX009 (ip), vehicle: other
[16] = dose: 50.0 mg/kg/injection, schedule: Q01DX009 (ip), vehicle: other
[17] = dose: 100.0 mg/kg/injection, schedule: Q01DX009 (ip), vehicle: other
[18] = dose: 200.0 mg/kg/injection, schedule: Q01DX009 (ip), vehicle: other
[19] = dose: 400.0 mg/kg/injection, schedule: Q01DX009 (ip), vehicle: other

CCOC(=O)c1ccc(NC(=O)N(C2CCCCC2)C2CCCCC2)cc1
T/C (dose: 3.75 mg/kg/injection, schedule: Q01DX005 (ip), vehicle: Klucel (hydroxypropylcellulose) (HPC)): 93 % of control | T/C (dose: 7.5 mg/kg/injection, schedule: Q01DX005 (ip), vehicle: Klucel (hydroxypropylcellulose) (HPC)): 94 % of control | T/C (dose: 15.0 mg/kg/injection, schedule: Q01DX005 (ip), vehicle: Klucel (hydroxypropylcellulose) (HPC)): 89 % of control | T/C (dose: 240.0 mg/kg/injection, schedule: Q01DX005 (ip), vehicle: Klucel (hydroxypropylcellulose) (HPC)): 87 % of control

O=C1/C(=C/c2cccc(O)c2O)SC(=S)N1Cc1ccco1
T/C [1]: 102 % of control | T/C [2]: 106 % of control | T/C [3]: 103 % of control

CCCCCC(=O)N1SC(NC(=O)OC)=Nc2ccccc21
T/C (dose: 50.0 mg/kg/injection, schedule: Q01DX005 (ip), vehicle: acetone): 102 % of control | T/C (dose: 100.0 mg/kg/injection, schedule: Q01DX005 (ip), vehicle: acetone): 107 % of control | T/C (dose: 200.0 mg/kg/injection, schedule: Q01DX005 (ip), vehicle: acetone): 107 % of control

C#CCC(C(=O)OC)N(CC)CC (stereo unspecified)
T/C [4]: 107 % of control | T/C [5]: 111 % of control | T/C [6]: 120 % of control

Cc1ccc(NC(=O)N2CCCCC2)cc1[N+](=O)[O-]
T/C [1]: 99 % of control | T/C [2]: 98 % of control | T/C [3]: 96 % of control

COc1cccc2c1C(=O)c1c(O)c3c(c(O)c1C2=O)C[C@@](O)(C(=O)COC(=O)CCCCC(=O)O)C[C@@H]3OC1CC(NC(=O)C(F)(F)F)C(O)C(C)O1 (stereo partly specified)
T/C (dose: 9.38 mg/kg/injection, schedule: Q04DX003 (ip), vehicle: other): 118 % of control | T/C (dose: 18.75 mg/kg/injection, schedule: Q04DX003 (ip), vehicle: other): 123 % of control | T/C (dose: 18.75 mg/kg/injection, schedule: Q04DX003 (ip), vehicle: saline with Tween-80): 119 % of control | T/C (dose: 37.5 mg/kg/injection, schedule: Q04DX003 (ip), vehicle: other): 124 % of control | T/C (dose: 75.0 mg/kg/injection, schedule: Q04DX003 (ip), vehicle: other): 156 % of control | T/C (dose: 150.0 mg/kg/injection, schedule: Q04DX003 (ip), vehicle: other): 194 % of control

O=C(N=Nc1c(Cl)c(O)c2ccccc2c1O)c1ccccc1O
T/C (dose: 6.25 mg/kg/injection, schedule: Q01DX009 (ip), vehicle: saline with Tween-80): 100 % of control | T/C (dose: 12.5 mg/kg/injection, schedule: Q01DX009 (ip), vehicle: saline with Tween-80): 108 % of control | T/C [7]: 106 % of control | T/C [8]: 104 % of control and 115 % of control

CC(=O)N/N=C1/C=C2C/C(=N\NC(C)=O)C=C2C1
T/C [9]: 99 % of control | T/C [10]: 95 % of control | T/C [11]: 90 % of control

BrCc1ccc2c(c1)CCC2
T/C (dose: 50.0 mg/kg/injection, schedule: Q01DX009 (ip), vehicle: distilled water + alcohol): 106 % of control | T/C (dose: 100.0 mg/kg/injection, schedule: Q01DX009 (ip), vehicle: distilled water + alcohol): 113 % of control | T/C (dose: 200.0 mg/kg/injection, schedule: Q01DX009 (ip), vehicle: distilled water + alcohol): 97 % of control

CCCCCCCCN1CCCN(/N=C/c2c3c(O)c4c(O)c(C)c5c(c4c2O)C(=O)C(C)(O/C=C/C(OC)C(C)C(OC(C)=O)C(C)C(O)C(C)C(O)C(C)/C=C/C=C(C)C(=O)N3)O5)CC1 (stereo unspecified)
T/C [8]: 97 % of control | T/C [12]: 100 % of control | T/C [13]: 91 % of control

COC1=NO[C@@H]2C=CO[C@H]12
T/C [9]: 105 % of control | T/C [10]: 100 % of control | T/C [11]: 93 % of control

O=C(O)C(Cc1ccc([N+](=O)[O-])cc1)NCc1ccco1 (stereo unspecified)
T/C [8]: 119 % of control | T/C [12]: 119 % of control

Cc1ccc(N/N=C/C(=O)O)cc1
T/C [14]: 113 % of control | T/C [15]: 103 % of control | T/C [16]: 112 % of control | T/C [17]: 98 % of control | T/C [18]: 116 % of control | T/C [19]: 116 % of control

CCN1C=C/C(=C/c2cc3scc(-c4ccccc4)[n+]3c3ccccc23)c2ccccc21
T/C (dose: 0.32 mg/kg/injection, schedule: Q04DX003 (ip), vehicle: saline sonified): 109 % of control

N=c1ccccn1CCO
T/C [4]: 94 % of control | T/C [5]: 99 % of control

CC(OS(C)(=O)=O)C(Br)C(Br)C(C)OS(C)(=O)=O (stereo unspecified)
T/C (dose: 100.0 mg/kg/injection, schedule: Q01DX001 (ip), vehicle: Klucel (hydroxypropylcellulose) (HPC)): 168 % of control | T/C (dose: 200.0 mg/kg/injection, schedule: Q01DX001 (ip), vehicle: Klucel (hydroxypropylcellulose) (HPC)): 176 % of control

O=C1C2C3C=CC(O3)C2C(=O)N1/N=C/c1ccc2c(c1)OCO2 (stereo unspecified)
T/C [9]: 97 % of control | T/C [10]: 102 % of control | T/C [11]: 93 % of control

CC(C)(C)c1ccc(C(=O)O)c(O)c1.CC(C)(C)c1ccc(C(=O)O)c(O)c1.[Cu]
T/C (dose: 12.5 mg/kg/injection, schedule: Q04DX003 (ip), vehicle: saline): 102 % of control | T/C (dose: 25.0 mg/kg/injection, schedule: Q04DX003 (ip), vehicle: saline): 94 % of control | T/C (dose: 50.0 mg/kg/injection, schedule: Q04DX003 (ip), vehicle: saline): 103 % of control

O=C(/C=C/C(=O)Nc1ccc(F)cc1F)Nc1ccc(F)cc1F
T/C (dose: 60.0 mg/kg/injection, schedule: Q01DX005 (ip), vehicle: saline with Tween-80): 94 % of control and 95 % of control | T/C (dose: 120.0 mg/kg/injection, schedule: Q01DX005 (ip), vehicle: saline with Tween-80): 98 % of control | T/C (dose: 240.0 mg/kg/injection, schedule: Q01DX005 (ip), vehicle: saline with Tween-80): 104 % of control and 97 % of control

COC1OC(CO)C(O)C2OCCOCCOC3C(OC)OC(CO)C(O)C3OCCOCCOC12 (stereo unspecified)
T/C [4]: 103 % of control | T/C [5]: 101 % of control | T/C [6]: 97 % of control

NC(N)=NCCCSC(=O)C1CCCCC1
T/C [9]: 105 % of control | T/C [10]: 107 % of control

Oc1ccc(N=Cc2ccc3c(c2)OCO3)cc1
T/C [14]: 109 % of control | T/C [15]: 111 % of control | T/C [16]: 94 % of control | T/C [17]: 113 % of control | T/C [18]: 111 % of control | T/C [19]: 108 % of control

CC(C)(C)C(=O)Oc1ccc([N+](=O)[O-])cc1
T/C (dose: 100.0 mg/kg/injection, schedule: Q04DX002 (ip), vehicle: saline with Tween-80): 106 % of control | T/C (dose: 200.0 mg/kg/injection, schedule: Q04DX002 (ip), vehicle: saline with Tween-80): 122 % of control | T/C (dose: 400.0 mg/kg/injection, schedule: Q04DX002 (ip), vehicle: saline with Tween-80): 102 % of control

CC(=O)OC1OC(C(OC(C)=O)C(Cl)Cl)OC1C(Cl)Cl (stereo unspecified)
T/C [8]: 97 % of control | T/C [12]: 105 % of control | T/C [13]: 112 % of control

O=c1ccc(=O)c2c(=O)c3cc4[nH]c5ccccc5[nH]c4cc3c(=O)c12
T/C [7]: 94 % of control | T/C [8]: 92 % of control | T/C [12]: 88 % of control

O=S1(=O)CCN(Cc2cccnc2)CC1
T/C (dose: 50.0 mg/kg/injection, schedule: Q01DX009 (ip), vehicle: saline): 94 % of control | T/C (dose: 100.0 mg/kg/injection, schedule: Q01DX009 (ip), vehicle: saline): 98 % of control | T/C (dose: 200.0 mg/kg/injection, schedule: Q01DX009 (ip), vehicle: saline): 91 % of control

C[C@@H]1CC2=CC(=O)CC[C@]2(C)[C@H]2CC[C@]3(C)[C@@H](O)CC[C@H]3[C@H]12
T/C [12]: 90 % of control | T/C [13]: 90 % of control

COc1ccc2c(c1O)-c1cccc3c1[C@@H](C2)N(CCOC(=O)NCCCl)CC3
T/C (dose: 9.38 mg/kg/injection, schedule: Q04DX003 (ip), vehicle: distilled water + Tween-80): 101 % of control | T/C (dose: 18.75 mg/kg/injection, schedule: Q04DX003 (ip), vehicle: distilled water + Tween-80): 99 % of control | T/C (dose: 37.5 mg/kg/injection, schedule: Q04DX003 (ip), vehicle: distilled water + Tween-80): 97 % of control | T/C (dose: 75.0 mg/kg/injection, schedule: Q04DX003 (ip), vehicle: distilled water + Tween-80): 99 % of control | T/C (dose: 150.0 mg/kg/injection, schedule: Q04DX003 (ip), vehicle: distilled water + Tween-80): 99 % of control | T/C (dose: 300.0 mg/kg/injection, schedule: Q04DX003 (ip), vehicle: distilled water + Tween-80): 105 % of control
